Measured values taken from ChEMBL document CHEMBL4359837, “Discovery of 2-(4-Chloro-3-(trifluoromethyl)phenyl)-N-(4-((6,7-dimethoxyquinolin-4-yl)oxy)phenyl)acetamide (CHMFL-KIT-64) as a Novel Orally Available Potent Inhibitor against Broad-Spectrum Mutants of c-KIT Kinase for Gastrointestinal Stromal Tumors” (J Med Chem, 2019).
Active and inactive are the calls of the source. No cut-off for these calls is given here.

What was measured:
[1] = system: Mast/stem cell growth factor receptor Kit (Homo sapiens), P10721 [T670I]; conditions: Mus musculus
Sequence of Mast/stem cell growth factor receptor Kit (Homo sapiens), P10721 [T670I] (P10721 whole entry T670I): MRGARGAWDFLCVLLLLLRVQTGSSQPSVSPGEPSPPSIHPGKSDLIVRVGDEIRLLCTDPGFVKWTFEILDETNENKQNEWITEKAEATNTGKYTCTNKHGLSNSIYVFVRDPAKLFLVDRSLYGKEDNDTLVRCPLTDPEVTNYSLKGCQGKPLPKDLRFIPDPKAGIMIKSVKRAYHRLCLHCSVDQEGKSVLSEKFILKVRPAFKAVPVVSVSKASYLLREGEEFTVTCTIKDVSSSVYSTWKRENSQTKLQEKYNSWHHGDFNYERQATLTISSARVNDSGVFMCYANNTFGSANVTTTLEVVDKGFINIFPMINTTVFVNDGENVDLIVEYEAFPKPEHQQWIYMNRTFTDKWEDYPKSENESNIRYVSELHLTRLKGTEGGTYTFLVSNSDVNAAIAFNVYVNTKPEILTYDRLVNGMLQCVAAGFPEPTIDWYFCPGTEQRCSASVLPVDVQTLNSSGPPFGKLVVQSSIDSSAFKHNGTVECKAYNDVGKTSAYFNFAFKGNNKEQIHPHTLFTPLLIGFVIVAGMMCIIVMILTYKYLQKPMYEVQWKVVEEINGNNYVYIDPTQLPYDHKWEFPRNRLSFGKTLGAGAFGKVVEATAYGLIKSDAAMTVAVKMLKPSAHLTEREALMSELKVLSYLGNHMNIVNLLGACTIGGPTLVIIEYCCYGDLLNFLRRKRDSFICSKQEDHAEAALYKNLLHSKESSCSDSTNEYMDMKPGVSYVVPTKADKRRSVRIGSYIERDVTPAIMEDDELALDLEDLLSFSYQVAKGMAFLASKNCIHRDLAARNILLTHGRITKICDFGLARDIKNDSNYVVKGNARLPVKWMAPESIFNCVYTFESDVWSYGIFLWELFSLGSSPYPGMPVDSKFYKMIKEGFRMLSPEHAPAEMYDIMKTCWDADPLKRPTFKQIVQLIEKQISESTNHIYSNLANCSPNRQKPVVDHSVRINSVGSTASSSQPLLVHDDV
Description: Inhibition of c-KIT T670I mutant in mouse BAF3(transformed) cells assessed as growth inhibition after 72 hrs by CCK8 assay

[2] = molecular target: Mast/stem cell growth factor receptor Kit (Mus musculus) (UniProt P05532); assay: Inhibition of c-KIT in mouse BAF3(transformed) cells assessed as growth inhibition after 72 hrs by CCK8 assay
Sequence of Mast/stem cell growth factor receptor Kit (Mus musculus) (P05532 whole entry): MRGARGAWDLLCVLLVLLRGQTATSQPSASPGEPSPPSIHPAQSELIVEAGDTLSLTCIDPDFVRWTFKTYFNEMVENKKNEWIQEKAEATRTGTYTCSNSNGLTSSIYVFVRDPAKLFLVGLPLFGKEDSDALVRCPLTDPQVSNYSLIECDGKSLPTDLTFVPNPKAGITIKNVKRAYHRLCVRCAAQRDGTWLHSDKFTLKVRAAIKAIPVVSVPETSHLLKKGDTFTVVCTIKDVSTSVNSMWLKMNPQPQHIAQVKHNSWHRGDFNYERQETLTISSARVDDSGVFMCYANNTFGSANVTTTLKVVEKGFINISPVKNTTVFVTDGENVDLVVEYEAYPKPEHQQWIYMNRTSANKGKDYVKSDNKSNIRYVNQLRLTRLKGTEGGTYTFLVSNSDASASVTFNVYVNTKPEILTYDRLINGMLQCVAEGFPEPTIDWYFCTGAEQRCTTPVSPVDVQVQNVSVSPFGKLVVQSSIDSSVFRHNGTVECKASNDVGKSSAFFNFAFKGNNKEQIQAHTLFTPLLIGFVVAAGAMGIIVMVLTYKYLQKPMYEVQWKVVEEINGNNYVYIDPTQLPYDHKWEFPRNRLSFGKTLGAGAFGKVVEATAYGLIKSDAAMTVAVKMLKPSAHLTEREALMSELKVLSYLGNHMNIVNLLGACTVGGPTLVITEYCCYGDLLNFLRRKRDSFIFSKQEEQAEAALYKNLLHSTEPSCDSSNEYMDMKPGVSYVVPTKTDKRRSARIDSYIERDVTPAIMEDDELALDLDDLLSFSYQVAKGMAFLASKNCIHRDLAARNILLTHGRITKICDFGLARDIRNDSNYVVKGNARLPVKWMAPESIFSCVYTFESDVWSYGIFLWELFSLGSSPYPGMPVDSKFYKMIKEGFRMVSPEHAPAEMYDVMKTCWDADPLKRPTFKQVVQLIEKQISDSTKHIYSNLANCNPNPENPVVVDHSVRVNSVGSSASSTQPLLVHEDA

[3] = Growth inhibition of mouse BAF3 cells measured after 72 hrs by CCK8 assay; assay type: cell-based
Mus musculus [4] = species: Mus musculus; assay: Inhibition of c-KIT V654A/V559D double mutant in mouse BAF3(transformed) cells assessed as growth inhibition after 72 hrs by CCK8 assay
[5] = system: Mast/stem cell growth factor receptor Kit (Homo sapiens), P10721 [V559A]; conditions: Mus musculus
Sequence of Mast/stem cell growth factor receptor Kit (Homo sapiens), P10721 [V559A] (P10721 whole entry V559A): as the sequence (P10721 whole entry T670I) above, with V559A, I670T counted along it
Description: Inhibition of c-KIT V559A mutant in mouse BAF3(transformed) cells assessed as growth inhibition after 72 hrs by CCK8 assay

GISTT1 [6] = assay type: functional, cell-based; conditions: Homo sapiens
GISTT1 [7] = assay type: functional, Homo sapiens; conditions: Mus musculus, GISTT1, po, 672 h; read-out: TGI
[8] = system: Mast/stem cell growth factor receptor Kit (Homo sapiens), P10721 [Y823D]; conditions: Mus musculus
Sequence of Mast/stem cell growth factor receptor Kit (Homo sapiens), P10721 [Y823D] (P10721 whole entry Y823D): as the sequence (P10721 whole entry T670I) above, with I670T, Y823D counted along it
Description: Inhibition of c-KIT Y823D mutant in mouse BAF3(transformed) cells assessed as growth inhibition after 72 hrs by CCK8 assay

Mus musculus [9] = species: Mus musculus; assay: Inhibition of c-KIT T670I/V559D double mutant in mouse BAF3(transformed) cells assessed as growth inhibition after 72 hrs by CCK8 assay
[10] = system: Mast/stem cell growth factor receptor Kit (Homo sapiens), P10721 [V559G]; conditions: Mus musculus
Sequence of Mast/stem cell growth factor receptor Kit (Homo sapiens), P10721 [V559G] (P10721 whole entry V559G): as the sequence (P10721 whole entry T670I) above, with V559G, I670T counted along it
Description: Inhibition of c-KIT V559G mutant in mouse BAF3(transformed) cells assessed as growth inhibition after 72 hrs by CCK8 assay

Mus musculus [11] = species: Mus musculus; assay: Inhibition of c-KIT T670E mutant in mouse BAF3(transformed) cells assessed as growth inhibition after 72 hrs by CCK8 assay
[12] = Growth inhibition of human GIST48B cells after 72 hrs by CCK8 assay; assay type: functional
[13] = system: Mast/stem cell growth factor receptor Kit (Homo sapiens), P10721 [UNDEFINED MUTATION]; conditions: GISTT1
Sequence of Mast/stem cell growth factor receptor Kit (Homo sapiens), P10721 [UNDEFINED MUTATION] (P10721 whole entry, looked up, stated change not applied): as the sequence (P10721 whole entry T670I) above, with I670T counted along it
Description: Inhibition of c-KIT 560 to 578 deletion mutant in human GISTT1 cells assessed as growth inhibition after 72 hrs by CCK8 assay

[14] = system: Mast/stem cell growth factor receptor Kit (Homo sapiens), P10721 [K642E]
Sequence of Mast/stem cell growth factor receptor Kit (Homo sapiens), P10721 [K642E] (P10721 whole entry K642E): as the sequence (P10721 whole entry T670I) above, with K642E, I670T counted along it

Mus musculus [15] = species: Mus musculus; assay: Inhibition of c-KIT D820G mutant in mouse BAF3(transformed) cells assessed as growth inhibition after 72 hrs by CCK8 assay
Mus musculus [16] = species: Mus musculus; assay: Inhibition of c-KIT S709F mutant in mouse BAF3(transformed) cells assessed as growth inhibition after 72 hrs by CCK8 assay
GISTT1 [17] = assay type: functional, Homo sapiens
Mus musculus [18] = species: Mus musculus; assay: Inhibition of c-KIT D816E mutant in mouse BAF3(transformed) cells assessed as growth inhibition after 72 hrs by CCK8 assay
[19] = system: Mast/stem cell growth factor receptor Kit (Homo sapiens), P10721 [D820Y]; conditions: Mus musculus
Sequence of Mast/stem cell growth factor receptor Kit (Homo sapiens), P10721 [D820Y] (P10721 whole entry D820Y): as the sequence (P10721 whole entry T670I) above, with I670T, D820Y counted along it
Description: Inhibition of c-KIT D820Y mutant in mouse BAF3(transformed) cells assessed as growth inhibition after 72 hrs by CCK8 assay

[20] = molecular target: T1, Platelet-derived growth factor receptor alpha (Homo sapiens, UniProt P16234); assay type: cell-based; conditions: GISTT1
T1 sequence (P16234 whole entry): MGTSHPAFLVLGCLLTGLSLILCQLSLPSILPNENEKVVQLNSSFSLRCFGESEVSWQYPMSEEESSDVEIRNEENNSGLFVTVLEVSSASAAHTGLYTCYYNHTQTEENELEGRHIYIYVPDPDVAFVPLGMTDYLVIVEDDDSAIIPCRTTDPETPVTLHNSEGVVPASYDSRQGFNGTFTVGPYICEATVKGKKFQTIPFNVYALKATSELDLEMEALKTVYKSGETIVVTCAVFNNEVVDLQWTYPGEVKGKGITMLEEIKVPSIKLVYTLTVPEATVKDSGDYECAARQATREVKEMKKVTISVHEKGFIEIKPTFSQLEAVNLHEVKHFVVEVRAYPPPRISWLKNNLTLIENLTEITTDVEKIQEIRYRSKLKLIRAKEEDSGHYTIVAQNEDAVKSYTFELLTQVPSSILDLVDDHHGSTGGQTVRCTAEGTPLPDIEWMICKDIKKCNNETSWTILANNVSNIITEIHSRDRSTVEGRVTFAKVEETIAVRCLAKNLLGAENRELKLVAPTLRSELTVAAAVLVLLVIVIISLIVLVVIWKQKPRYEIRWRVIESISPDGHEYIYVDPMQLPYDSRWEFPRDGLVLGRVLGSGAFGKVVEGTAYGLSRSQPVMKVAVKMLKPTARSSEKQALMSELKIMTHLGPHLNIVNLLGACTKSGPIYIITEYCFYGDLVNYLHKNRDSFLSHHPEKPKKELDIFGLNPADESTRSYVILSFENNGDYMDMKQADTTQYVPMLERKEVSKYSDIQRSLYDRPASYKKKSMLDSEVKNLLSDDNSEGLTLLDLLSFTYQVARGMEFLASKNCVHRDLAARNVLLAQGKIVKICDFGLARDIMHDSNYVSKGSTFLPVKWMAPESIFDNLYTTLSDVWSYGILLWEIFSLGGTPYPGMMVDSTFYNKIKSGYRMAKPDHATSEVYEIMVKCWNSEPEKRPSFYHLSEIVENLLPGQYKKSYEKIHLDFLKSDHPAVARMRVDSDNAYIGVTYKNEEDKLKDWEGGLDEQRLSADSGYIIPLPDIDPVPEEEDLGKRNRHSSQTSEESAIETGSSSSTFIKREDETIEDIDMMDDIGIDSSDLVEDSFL

[21] = molecular target: T1, Platelet-derived growth factor receptor alpha; assay type: cell-based; conditions: GISTT1; remark: listed apart in the source
[22] = molecular target: T1, Platelet-derived growth factor receptor alpha; assay type: cell-based; conditions: GISTT1; remark: listed apart in the source
[23] = molecular target: T1, Platelet-derived growth factor receptor alpha; assay type: cell-based; conditions: GISTT1; remark: listed apart in the source
[24] = molecular target: T1, Platelet-derived growth factor receptor alpha; assay type: cell-based; conditions: GISTT1; remark: listed apart in the source
[25] = molecular target: T1, Platelet-derived growth factor receptor alpha; assay type: cell-based; conditions: GISTT1; remark: listed apart in the source
[26] = molecular target: T1, Platelet-derived growth factor receptor alpha; assay type: cell-based; conditions: GISTT1; remark: listed apart in the source

Compound	GI50 [1] [µM]	GI50 [2] [µM]	GI50 at 72 h [3] [µM]	further results
COc1cc2nccc(N(C)c3ccc(NC(=O)Cc4ccc(Cl)c(C(F)(F)F)c4)cc3)c2cc1OC	8.46	4.28	2.67	
COc1cc2nccc(Oc3ccc(NC(=O)Cc4ccccc4)cc3)c2cc1OC	> 10	> 10	> 10	
COc1cc2nccc(Oc3ccc(NC(=O)Cc4ccc5c(c4)OCO5)cc3)c2cc1OC	0.167	0.11	3.1	
COc1cc2nccc(Oc3ccc(NC(=O)Cc4cccc(F)c4)cc3)c2cc1OC	0.342	0.923	1	
COc1cc2nccc(Oc3ccc(C(=O)NCc4ccc(C(F)(F)F)cc4)cc3)c2cc1OC	0.668	2.9	6.18	
COc1cc2nccc(Oc3ccc(NC(=O)Cc4ccc(Cl)c(C(F)(F)F)c4)cc3C#N)c2cc1OC	0.21	0.989	9.97	
COc1cc2nccc(Oc3ccc(NC(=O)Cc4ccccc4C(F)(F)F)cc3)c2cc1OC	0.309	0.424	6.7	
COc1cc2nccc(Oc3ccc(NC(=O)Cc4ccncc4)cc3)c2cc1OC	6.99	4.71	5.13	
COc1cc2nccc(Oc3ccc(NC(=O)Cc4ccc(F)c(F)c4)cc3)c2cc1OC	0.309	0.312	0.67	
Cc1ccc(NC(=O)c2ccc(CN3CCN(C)CC3)cc2)cc1Nc1nccc(-c2cccnc2)n1 [IMATINIB]		0.35	> 10	GI50 (Mus musculus [4]): 0.608 µM; GI50 [5]: 0.905 µM; Activity (GISTT1 [6]): Active; inhibition in vivo at 100 mg/kg/day (GISTT1 [7]): 66.4%; GI50 [8]: 5.87 µM; GI50 (Mus musculus [9]): > 10 µM; GI50 [10]: 0.008 µM; GI50 (Mus musculus [11]): 4.08 µM; GI50 [12]: > 10 µM; GI50 [13]: 0.015 µM; GI50 [14]: 0.048 µM; GI50 (Mus musculus [15]): 0.337 µM; GI50 (Mus musculus [16]): 0.115 µM; Activity (GISTT1 [17]): 1.54 g; GI50 (Mus musculus [18]): 0.174 µM; GI50 [19]: 0.435 µM
COc1cc2nccc(Oc3ccc(NC(=O)CN4CCN(C)CC4)cc3)c2cc1OC	8.52	7.33	8.7	
COc1cc2nccc(Oc3ccc(NC(=O)CC4CCCCC4)cc3)c2cc1OC	0.362	0.635	2.47	
COc1cc2nccc(Nc3ccc(NC(=O)Cc4ccc(Cl)c(C(F)(F)F)c4)cc3)c2cc1OC	0.4	0.742	2.21	
COc1cc2nccc(Oc3ccc(NC(=O)Cc4ccc(Cl)c(C(F)(F)F)c4)cc3C(F)(F)F)c2cc1OC	2.84	3	2.92	
COc1cccc(CC(=O)Nc2ccc(Oc3ccnc4cc(OC)c(OC)cc34)cc2)c1	0.339	0.293	2.78	
Cc1ccc(NC(=O)c2ccc(CN(CCN(C)C)C(=O)c3ccccn3)cc2)cc1Nc1nccc(-c2cccnc2)n1				inhibition [20]: Active; inhibition [21]: Active; inhibition [22]: Active; inhibition [23]: Active; Activity (GISTT1 [6]): Active; inhibition [24]: Active; inhibition [25]: Active; inhibition [26]: Active
COc1cc2nccc(Oc3ccc(NC(=O)Cc4ccc5ccccc5c4)cc3)c2cc1OC	0.034	0.112	6.23	
COc1cc2nccc(Oc3ccc(NC(=O)Cc4c(F)cccc4F)cc3)c2cc1OC	1.7	2.78	1.93	
COc1cc2nccc(Oc3ccc(NC(=O)C4(c5ccccc5)CC4)cc3)c2cc1OC	> 10	> 10	> 10	
COc1cc2nccc(Oc3ccc(NC(=O)Cc4ccc(Cl)c(Cl)c4)cc3)c2cc1OC	0.037	0.342	2.03	
COc1cc2nccc(Sc3ccc(NC(=O)Cc4ccc(Cl)c(C(F)(F)F)c4)cc3)c2cc1OC	0.11	0.154	3.09	
COc1ccc(CC(=O)Nc2ccc(Oc3ccnc4cc(OC)c(OC)cc34)cc2)cc1OC	0.179	0.319	4.13	
COc1cc2nccc(Oc3ccc(NC(=O)Cc4ccc(Cl)c(C(F)(F)F)c4)cc3F)c2cc1OC	0.021	0.116	1.99	
COc1cc2nccc(Oc3ccc(C(=O)NCc4cccc(C(F)(F)F)c4)cc3)c2cc1OC	4.61	2.35	10	

Now from value to compound, other results behind:

GI50 [1] [µM]	GI50 [2] [µM]	Compound	GI50 at 72 h [3] [µM]	further results
0.075	0.061	COc1cc2nccc(Oc3ccc(NC(=O)Cc4ccc(Cl)c(C(F)(F)F)c4)c(C)c3)c2cc1OC	4.86	
	0.057	CCC(=O)NCC1CCN(c2ccc(NC(=O)Nc3cccc(Oc4ccnc5cc(OC)c(OC)cc45)c3)cc2C(F)(F)F)CC1	> 10	
0.014	0.017	COc1cc2nccc(Oc3ccc(NC(=O)Cc4ccc(C)c(C(F)(F)F)c4)cc3)c2cc1OC	7.26	
0.013	0.024	COc1cc2nccc(Oc3ccc(NC(=O)Cc4ccc(F)c(C(F)(F)F)c4)cc3)c2cc1OC	1.03	
0.015	0.027	COc1cc2nccc(Oc3ccc(NC(=O)Cc4ccc(C)c(C)c4)cc3)c2cc1OC	6.42	
0.07	0.081	COc1cc2nccc(Oc3ccc(NC(=O)Cc4ccc(Cl)c(C(F)(F)F)c4)c(Cl)c3)c2cc1OC	8.22	
0.009	0.105	COc1cc2nccc(Oc3ccc(NC(=O)Cc4ccc(Cl)c(C(F)(F)F)c4)cc3C)c2cc1OC	7.05	
1.56	0.034	COc1cc2nccc(Oc3ccc(NC(=O)Cc4ccc(Cl)c(C(F)(F)F)c4)cc3OC)c2cc1OC	8.48	
0.018	0.049	COc1cc2nccc(Oc3ccc(NC(=O)Cc4ccc(Cl)c(C(F)(F)F)c4)c(F)c3)c2cc1OC	3.21	
0.011	0.022	COc1cc2nccc(Oc3ccc(NC(=O)Cc4ccc(C(F)(F)F)cc4)cc3)c2cc1OC	2.16	
0.001	0.02	COc1cc2nccc(Oc3ccc(NC(=O)Cc4cccc(C(F)(F)F)c4)cc3)c2cc1OC	1.89	
0.285	0.04	COc1cc2nccc(Oc3ccc(NC(=O)Cc4ccc(F)cc4F)cc3)c2cc1OC	0.704	
0.056	0.078	COc1cc2nccc(Oc3ccc(NC(=O)Cc4ccc(Cl)c(C(F)(F)F)c4)cc3Cl)c2cc1OC	9.45	
